Reference: publication PMC11308155 (Microbial Cell Factories, 2024)
pIC50, pKi: −log10 of the molar value. Values after ≈ are worked out from the molar mass of the structure shown.

Assays:
[1] = system: E. coli clinical isolates; assay: MIC by broth microdilution against clinical isolates of E. coli; format: cell-based
[2] = system: CTX-M-15-producer isogenic strain; assay: Disc diffusion test, CTX-M-15-producer; format: cell-based, E. coli; conditions: cefotaxime disc 30 µg
[3] = system: isogenic strain producing CTX-M-15; assay: Time-kill kinetic assay, CTX-M-15-producing isogenic strain; format: cell-based, E. coli; conditions: cefotaxime 2 µg/mL + inhibitor 4 µg/mL; CTX-M-15 strain
[4] = system: isogenic strain producing KPC-2; assay: Time-kill kinetic assay, KPC-2-producing isogenic strain; format: cell-based, E. coli; conditions: imipenem 4 µg/mL + inhibitor 4 µg/mL, KPC-2 strain
[5] = system: K. pneumoniae clinical isolates; assay: MIC by broth microdilution against clinical isolates of K. pneumoniae; format: cell-based; conditions: for MIC range: K. pneumoniae clinical isolates, 25 isolates
[6] = system: KPC-2-producer isogenic strain; assay: Disc diffusion test, KPC-2-producer; format: cell-based, E. coli; conditions: imipenem disc 10 µg
[7] = biological target: CTX-M-15 (Escherichia coli, UniProt Q9EXV5); assay: Purified β-lactamase inhibition assay with nitrocefin, CTX-M-15; format: biochemical, E. coli
CTX-M-15 (Escherichia coli, UniProt Q9EXV5), sequence (Q9EXV5 29-291): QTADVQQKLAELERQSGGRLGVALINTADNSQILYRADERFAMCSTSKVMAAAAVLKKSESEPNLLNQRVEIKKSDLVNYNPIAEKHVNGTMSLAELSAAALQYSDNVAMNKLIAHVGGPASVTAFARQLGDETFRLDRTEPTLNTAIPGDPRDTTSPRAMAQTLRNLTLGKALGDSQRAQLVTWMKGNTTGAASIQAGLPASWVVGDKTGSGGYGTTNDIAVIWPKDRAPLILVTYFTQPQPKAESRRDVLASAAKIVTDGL

[8] = biological target: KPC-2 (Klebsiella pneumoniae, UniProt Q9F663); assay: Purified β-lactamase inhibition assay with nitrocefin, KPC-2; format: biochemical, K. pneumoniae
KPC-2, sequence (Q9F663 25-293, looked up): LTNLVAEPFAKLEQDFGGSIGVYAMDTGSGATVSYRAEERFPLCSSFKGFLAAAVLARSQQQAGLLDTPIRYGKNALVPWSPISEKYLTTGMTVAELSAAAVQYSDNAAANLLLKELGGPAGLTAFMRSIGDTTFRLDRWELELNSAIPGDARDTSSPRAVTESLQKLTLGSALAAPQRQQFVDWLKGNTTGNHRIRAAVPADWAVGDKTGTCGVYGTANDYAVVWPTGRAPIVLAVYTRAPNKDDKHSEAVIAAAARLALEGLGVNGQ

[9] = system: CTX-M-15; conditions: ref 17 (Faheem et al.); cited from earlier work

CC1=C(C(=O)O)N2C(=O)[C@@H](NC(=O)[C@H](N)c3ccccc3)[C@H]2SC1 [Cefalexin, cefalexin]
MIC90 ([1]; Escherichia coli): 512 µg/mL (≈ 1470 µM)

CO/N=C(\C(=O)N[C@@H]1C(=O)N2C(C(=O)O)=C(COC(C)=O)CS[C@H]12)c1csc(N)n1 [Cefotaxime, cefotaxime]
MIC range ([1]; E. coli clinical isolates, 25 isolates): 64 to 128 µg/mL | disc diffusion result, antibiotic disc only [2]: resistance

O=C(O)[C@H]1/C(=C/CO)O[C@@H]2CC(=O)N21 [Clavulanic acid, clavulanic acid]
incubation time after which viable count was below the limit of detection [3]: 10 h | reduction in CFU ([4]; after 6 h of incubation): 2 log10

C[C@@H](O)[C@H]1C(=O)N2C(C(=O)O)=C(S[C@@H]3CN[C@H](C(=O)Nc4cccc(C(=O)O)c4)C3)[C@H](C)[C@H]12 [Ertapenem, ertapenem]
MIC range [5]: 8 to 256 µg/mL | MIC range ([5]; listed as ertapenem): 8 to 256 µg/mL | MIC90 ([5]; Klebsiella pneumoniae): 32 µg/mL (≈ 67.3 µM)

C[C@@H](O)[C@H]1C(=O)N2C(C(=O)O)=C(SCCN=CN)C[C@H]12 [Imipenem, imipenem]
MIC range [5]: 64 to 512 µg/mL | disc diffusion result, antibiotic disc only [6]: resistance

C[C@]1(Cn2ccnn2)[C@H](C(=O)O)N2C(=O)C[C@H]2S1(=O)=O [Tazobactam, tazobactam]
pIC50 [7]: 4.23 | pKi ([7]; Ki, CTX-M-15, nitrocefin substrate): ~4.51 | pIC50 [8]: 4.16 | pKi [8]: 4.54 | incubation time after which viable count was below the limit of detection [3]: 6 h | incubation time after which viable count was below the limit of detection [4]: 8 h | decrease of the MICs of some cephalosporin antibiotics [9]: 2–16 folds
